For the first assay, the target named is T1, hCD22 (Homo sapiens, UniProt P20273).
T1 sequence (P20273 20-326 limits assumed): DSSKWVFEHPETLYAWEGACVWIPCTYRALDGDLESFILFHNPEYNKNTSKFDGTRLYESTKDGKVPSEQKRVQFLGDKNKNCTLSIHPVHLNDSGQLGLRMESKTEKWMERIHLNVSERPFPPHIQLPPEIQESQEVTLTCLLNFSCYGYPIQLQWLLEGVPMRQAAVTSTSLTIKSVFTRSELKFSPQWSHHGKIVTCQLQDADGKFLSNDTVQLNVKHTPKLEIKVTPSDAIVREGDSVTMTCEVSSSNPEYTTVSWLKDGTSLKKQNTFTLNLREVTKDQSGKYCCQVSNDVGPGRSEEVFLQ
Nature of the assay: Competition ELISA. It counts as binding. In general terms: ELISA stands for enzyme-linked immunosorbent assay.
Turning to `O=C(CO)N[C@H]1[C@H]([C@H](O)[C@H](O)CNCc2ccc(-c3ccc(O)cc3)cc2)O[C@@](OCc2ccccc2)(C(=O)O)C[C@@H]1O` [Compound 8, Benzyl 3,5,9-trideoxy-5-glycolamido-9-(4′-hydroxy-4-biphenyl)methylamino-D-glycero-α-D-galacto-2-nonulopyranosidonic acid], the IC50 (commonly the concentration at which inhibition is half-maximal) turned out to be 2.75 ± 1.3 µM.

`O=C(Cc1ccc(-c2ccc(O)cc2)cc1)NC[C@@H](O)[C@@H](O)[C@@H]1O[C@@](OCc2ccccc2)(C(=O)O)C[C@H](O)[C@H]1NC(=O)CO` [Compound 5, benzyl 3,5,9-trideoxy-5-glycolamido-9-(4′-hydroxy-4-biphenyl)acetamido-D-glycero-α-D-galacto-2-nonulopyranosidonic acid] yielded an IC50 of 0.24 ± 0.05 µM. Compared with the last molecule, the IC50 is about 11-fold lower.

In turn, `O=C(CO)N[C@H]1[C@H]([C@H](O)[C@H](O)CNCc2ccc(-c3ccc(O)cc3)cc2)O[C@@](OCc2ccc(-c3ccccc3)cc2)(C(=O)O)C[C@@H]1O` [Compound 9, (4-Biphenyl)methyl 3,5,9-trideoxy-5-glycolamido-9-(4′-hydroxy-4-biphenyl) methylamino-D-glycero-α-D-galacto-2-nonulopyranosidonic acid] came in with an IC50 of 2.24 ± 0.28 µM.

For the molecule `COc1ccc(O[C@@H]2O[C@H](CO[C@]3(C(=O)O)C[C@H](O)[C@@H](NC(=O)CO)[C@H]([C@H](O)[C@H](O)CNCc4ccc(-c5ccc(O)cc5)cc4)O3)[C@H](O)[C@H](O)[C@H]2O)cc1` [Compound 2, 9-(4'-hydroxy-4-biphenyl)methylamino-9-deoxy-Neu5Gcα2-6GalOMP, reference compound], the IC50 is 3.29 ± 0.33 µM.

Molecule `O=C(Cc1ccc(-c2ccc(O)cc2)cc1)NC[C@@H](O)[C@@H](O)[C@@H]1O[C@@](OCc2ccc(-c3ccccc3)cc2)(C(=O)O)C[C@H](O)[C@H]1NC(=O)CO` [Compound 6] registered an IC50 of 0.38 µM. This IC50 lies about 8.7-fold lower than the previous one.

Molecule `COc1ccc(O[C@@H]2O[C@H](CO[C@]3(C(=O)O)C[C@H](O)[C@@H](NC(=O)CO)[C@H]([C@H](O)[C@H](O)CNC(=O)Cc4ccc(-c5ccc(O)cc5)cc4)O3)[C@H](O)[C@H](O)[C@H]2O)cc1` [Compound 1, 9-(4'-hydroxy-4-biphenyl)acetamido-9-deoxy-Neu5Gcα2-6GalOMP, reference compound] returned an IC50 of 3.27 ± 0.62 µM.

Another assay concerns the target mCD22 (Mus musculus, UniProt P35329). The assay is described as follows: Competition ELISA with biotinylated form of 1, mCD22Fc. It counts as binding, murine.
As to `O=C(Cc1ccc(-c2ccc(F)cc2)cc1)NC[C@@H](O)[C@@H](O)[C@@H]1O[C@@](OCc2ccccc2)(C(=O)O)C[C@H](O)[C@H]1NC(=O)CO` [Compound 7, Benzyl 3,5,9-trideoxy-5-glycolamido-9-(4′-fluoro-4-biphenyl)acetamido-D-glycero-α-D-galacto-2-nonulopyranosidonic acid], the “fold less potent than 5 for CD22” value stood at 50 fold.

(Values after publication PMC3816717 (Bioorganic & medicinal chemistry, 2011).)
